“And” between values parts separate entries of the source, which are not always exact repeats. Equal values may be shown once.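 A five-concentration, 48-hour dose response in 96-well plates underlies each endpoint, interpolated linearly between surrounding concentrations. GI50 marks 50% less growth. The concentration for full growth arrest is given as TGI.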
How the values were obtained:
Assay in all cases: NCI anticancer screen, dose series, 48 h
SF-539 CNS = tested on: SF-539 CNS
ACHN renal = tested on: ACHN renal
HOP-92 NSCLC = tested on: HOP-92 NSCLC
PC-3 prostate = tested on: PC-3 prostate
SN12C renal = tested on: SN12C renal
MALME-3M melanoma = tested on: MALME-3M melanoma
SF-268 CNS = tested on: SF-268 CNS
HCT-116 colon = tested on: HCT-116 colon
SF-295 CNS = tested on: SF-295 CNS
OVCAR-8 ovarian = tested on: OVCAR-8 ovarian
SW-620 colon = tested on: SW-620 colon
A498 renal = tested on: A498 renal
HS 578T breast = tested on: HS 578T breast
U251 CNS = tested on: U251 CNS
OVCAR-5 ovarian = tested on: OVCAR-5 ovarian
NCI-H226 lung = tested on: NCI-H226 lung
NCI-H522 lung = tested on: NCI-H522 lung
RXF 393 renal = tested on: RXF 393 renal
NCI-H460 lung = tested on: NCI-H460 lung
HCC-2998 colon = tested on: HCC-2998 colon
CAKI-1 renal = tested on: CAKI-1 renal
KM12 colon = tested on: KM12 colon
UACC-257 melanoma = tested on: UACC-257 melanoma
SNB-19 CNS = tested on: SNB-19 CNS
COLO 205 colon = tested on: COLO 205 colon
HOP-62 NSCLC = tested on: HOP-62 NSCLC
TK-10 renal = tested on: TK-10 renal
EKVX NSCLC = tested on: EKVX NSCLC
IGROV1 ovarian = tested on: IGROV1 ovarian
SNB-75 CNS = tested on: SNB-75 CNS
SR leukemia = tested on: SR leukemia
BT-549 breast = tested on: BT-549 breast
T-47D breast = tested on: T-47D breast
A549 NSCLC = tested on: A549 NSCLC
786-0 renal = tested on: 786-0 renal
K-562 leukemia = tested on: K-562 leukemia
DU-145 prostate = tested on: DU-145 prostate
LOX IMVI melanoma = tested on: LOX IMVI melanoma
HT29 colon = tested on: HT29 colon
UO-31 renal = tested on: UO-31 renal
M14 melanoma = tested on: M14 melanoma
NCI/ADR-RES ovarian = tested on: NCI/ADR-RES ovarian
CCRF-CEM leukemia = tested on: CCRF-CEM leukemia
RPMI-8226 leukemia = tested on: RPMI-8226 leukemia
UACC-62 melanoma = tested on: UACC-62 melanoma
MDA-MB-435 = tested on: MDA-MB-435
NCI-H23 lung = tested on: NCI-H23 lung
SK-MEL-2 melanoma = tested on: SK-MEL-2 melanoma
OVCAR-3 ovarian = tested on: OVCAR-3 ovarian
SK-OV-3 ovarian = tested on: SK-OV-3 ovarian
MOLT-4 leukemia = tested on: MOLT-4 leukemia
SK-MEL-28 melanoma = tested on: SK-MEL-28 melanoma
HCT-15 colon = tested on: HCT-15 colon
MCF7 breast = tested on: MCF7 breast
MDA-MB-231 breast = tested on: MDA-MB-231 breast
OVCAR-4 ovarian = tested on: OVCAR-4 ovarian
SK-MEL-5 melanoma = tested on: SK-MEL-5 melanoma
HL-60(TB) leukemia = tested on: HL-60(TB) leukemia

What does the source list for `O=C(O)C(Cl)Cl`?
GI50 (SF-539 CNS): > 10 mM; TGI (SF-539 CNS): > 10 mM; GI50 (ACHN renal): 5.7 mM and > 10 mM; TGI (ACHN renal): > 10 mM; GI50 (HOP-92 NSCLC): 3.63 mM and > 10 mM; TGI (HOP-92 NSCLC): > 10 mM; GI50 (PC-3 prostate): > 10 mM; TGI (PC-3 prostate): > 10 mM; GI50 (SN12C renal): 8.18 mM and > 10 mM; TGI (SN12C renal): > 10 mM; GI50 (MALME-3M melanoma): 2.5 mM and > 10 mM; TGI (MALME-3M melanoma): > 10 mM; GI50 (SF-268 CNS): 4.97 mM and > 10 mM; TGI (SF-268 CNS): > 10 mM; GI50 (HCT-116 colon): 6.7 mM and > 10 mM; TGI (HCT-116 colon): > 10 mM; GI50 (SF-295 CNS): 4.23 mM and > 10 mM; TGI (SF-295 CNS): > 10 mM; GI50 (OVCAR-8 ovarian): > 10 mM; TGI (OVCAR-8 ovarian): > 10 mM; GI50 (SW-620 colon): > 10 mM; TGI (SW-620 colon): > 10 mM; GI50 (A498 renal): 2.67 mM and > 10 mM; TGI (A498 renal): > 10 mM; GI50 (HS 578T breast): 3.09 mM and > 10 mM; TGI (HS 578T breast): > 10 mM; GI50 (U251 CNS): 7.69 mM and > 10 mM; TGI (U251 CNS): > 10 mM; GI50 (OVCAR-5 ovarian): > 10 mM; TGI (OVCAR-5 ovarian): > 10 mM; GI50 (NCI-H226 lung): 8.13 mM and > 10 mM; TGI (NCI-H226 lung): > 10 mM; GI50 (NCI-H522 lung): 8.04 mM and > 10 mM; TGI (NCI-H522 lung): > 10 mM; GI50 (RXF 393 renal): 5.14 mM and > 10 mM; TGI (RXF 393 renal): > 10 mM; GI50 (NCI-H460 lung): 6.07 mM and > 10 mM; TGI (NCI-H460 lung): > 10 mM; GI50 (HCC-2998 colon): > 10 mM; TGI (HCC-2998 colon): > 10 mM; GI50 (CAKI-1 renal): 5.49 mM and > 10 mM; TGI (CAKI-1 renal): > 10 mM; GI50 (KM12 colon): > 10 mM; TGI (KM12 colon): > 10 mM; GI50 (UACC-257 melanoma): > 10 mM; TGI (UACC-257 melanoma): > 10 mM; GI50 (SNB-19 CNS): 7.52 mM and > 10 mM; TGI (SNB-19 CNS): > 10 mM; GI50 (COLO 205 colon): > 10 mM; TGI (COLO 205 colon): > 10 mM; GI50 (HOP-62 NSCLC): > 10 mM; TGI (HOP-62 NSCLC): > 10 mM; GI50 (TK-10 renal): > 10 mM; TGI (TK-10 renal): > 10 mM; GI50 (EKVX NSCLC): > 10 mM; TGI (EKVX NSCLC): > 10 mM; GI50 (IGROV1 ovarian): > 10 mM; TGI (IGROV1 ovarian): > 10 mM; GI50 (SNB-75 CNS): 3.5 mM and > 10 mM; TGI (SNB-75 CNS): > 10 mM; GI50 (SR leukemia): > 10 mM; TGI (SR leukemia): > 10 mM; GI50 (BT-549 breast): 2.78 mM and > 8.92 mM; TGI (BT-549 breast): > 10 mM; GI50 (T-47D breast): 4.1 mM and > 10 mM; TGI (T-47D breast): > 10 mM; GI50 (A549 NSCLC): 7.56 mM and > 10 mM; TGI (A549 NSCLC): > 10 mM; GI50 (786-0 renal): 5.69 mM and > 10 mM; TGI (786-0 renal): > 10 mM; GI50 (K-562 leukemia): 6.3 mM and > 10 mM; TGI (K-562 leukemia): > 10 mM; GI50 (DU-145 prostate): 5.72 mM and > 10 mM; TGI (DU-145 prostate): > 10 mM; GI50 (LOX IMVI melanoma): 7.49 mM and > 10 mM; TGI (LOX IMVI melanoma): > 10 mM; GI50 (HT29 colon): 7.2 mM and > 10 mM; TGI (HT29 colon): > 10 mM; GI50 (UO-31 renal): 2.09 mM and > 6.87 mM; TGI (UO-31 renal): 5.01 mM and > 9.34 mM; GI50 (M14 melanoma): > 10 mM; TGI (M14 melanoma): > 10 mM; GI50 (NCI/ADR-RES ovarian): 7.66 mM and > 10 mM; TGI (NCI/ADR-RES ovarian): > 10 mM; GI50 (CCRF-CEM leukemia): 4.92 mM and > 4.68 mM; TGI (CCRF-CEM leukemia): > 10 mM; GI50 (RPMI-8226 leukemia): 3.21 mM and > 9.4 mM; TGI (RPMI-8226 leukemia): > 10 mM; GI50 (UACC-62 melanoma): 6.71 mM and > 10 mM; TGI (UACC-62 melanoma): > 10 mM; GI50 (MDA-MB-435): 5.46 mM and > 10 mM; TGI (MDA-MB-435): > 10 mM; GI50 (NCI-H23 lung): > 10 mM; TGI (NCI-H23 lung): > 10 mM; GI50 (SK-MEL-2 melanoma): 8.2 mM and > 10 mM; TGI (SK-MEL-2 melanoma): > 10 mM; GI50 (OVCAR-3 ovarian): 4.71 mM and > 10 mM; TGI (OVCAR-3 ovarian): > 10 mM; GI50 (SK-OV-3 ovarian): > 10 mM; TGI (SK-OV-3 ovarian): > 10 mM; GI50 (MOLT-4 leukemia): 8.18 mM and > 8.7 mM; TGI (MOLT-4 leukemia): > 10 mM; GI50 (SK-MEL-28 melanoma): 3.15 mM and > 10 mM; TGI (SK-MEL-28 melanoma): > 10 mM; GI50 (HCT-15 colon): 6.68 mM and > 10 mM; TGI (HCT-15 colon): > 10 mM; GI50 (MCF7 breast): 5.56 mM and > 10 mM; TGI (MCF7 breast): > 10 mM; GI50 (MDA-MB-231 breast): > 10 mM; TGI (MDA-MB-231 breast): > 10 mM; GI50 (OVCAR-4 ovarian): 3.3 mM and 8.52 mM; TGI (OVCAR-4 ovarian): > 10 mM; GI50 (SK-MEL-5 melanoma): > 10 mM; TGI (SK-MEL-5 melanoma): > 10 mM; GI50 (HL-60(TB) leukemia): 7.27 mM and > 7.66 mM; TGI (HL-60(TB) leukemia): > 10 mM
